# In ChEMBL document CHEMBL3727361, “Nitrogen bicyclic compounds as inhibitors for Scyl1 and Grk5” (2014):
# Tested on: Beta-TC6
# Assay: Increase in insulin release in mouse BetaTC6 cells assessed as relative insulin release activity at 10 uM incubated for 2 to 4 hrs by FRET based HTRF assay relative to sunitinib
# Type: functional
row,Compound,Activity
1,CN1CCN(C(=O)c2cccc(-c3cnc4cnc(-c5ccc6c(ccn6C)c5)cn34)c2)CC1,20%
2,CN(C)CCCNC(=O)c1ccc(-c2ccc3nnc(-c4cccc(C(F)(F)F)c4)n3c2)cc1,20%
3,COc1cc(-c2ccc3ncc(-c4cccs4)n3n2)ccc1O,20%
4,CN1CCN(C(=O)c2cccc(-c3cnc4cnc(-c5ccccc5Oc5ccccc5)cn34)c2)CC1,20%
5,Nc1ccc(-c2cnc3ccc(Cc4ccccc4)nn23)cn1,20%
6,COc1ccc(-c2cnc3ccc(NCc4cccs4)nn23)c(OC)c1,20%
7,Brc1cnc2ccc(NCCCN3CCOCC3)nn12,10%
8,Nc1ccc(-c2ccc3nnc(-c4cccc(C(F)(F)F)c4)n3c2)cn1,20%
9,O=C(c1ccc(-c2ccc3nnc(-c4cccc(C(F)(F)F)c4)n3c2)cc1)N1CCOCC1,20%
10,NC(=O)c1ccc(-c2ccc3ncc(-c4cccc(OC(F)(F)F)c4)n3n2)cc1,20%
11,CN(C)CCNC(=O)c1cccc(-c2ccc3nnc(-c4ccc5nccnc5c4)n3c2)c1,>=100%
12,OCc1cccc(-c2cnc3cnc(-c4ccccc4)cn23)c1,20%
13,OCc1ccc(-c2ccc3ncc(-c4cccnc4)n3n2)cc1,20%
14,N#Cc1cccc(-c2nnc3ccc(-c4ccccn4)cn23)c1,20%
15,COc1ccc(-c2cnc3ccc(NCCCO)nn23)c(OC)c1,10%
16,Clc1ccccc1-c1ccc2nnc(-c3cccnc3)n2c1,50%
17,OCc1ccc(-c2cnc3ccc(-c4cncnc4)nn23)cc1,10%
18,CC(C)Oc1cccc(-c2cn3c(-c4ccc5c(c4)OCO5)cnc3cn2)c1,50%
19,Cn1ccc2cc(-c3cnc4cnc(-c5cccc(C(=O)NCCO)c5)cn34)ccc21,20%
20,COc1ccc(-c2cn3c(-c4cccc(O)c4)cnc3cn2)cn1,20%
21,COc1cc(-c2cnc3ccc(-c4cccc(OC(F)(F)F)c4)nn23)ccc1O,10%
22,CN(C)C(=O)c1ccc(-c2cnc3cnc(-c4ccsc4)cn23)cc1,20%
23,COc1cc(OC)cc(-c2cn3c(-c4ccc5c(c4)OCO5)cnc3cn2)c1,50%
24,FC(F)(F)Oc1cccc(-c2nnc3ccc(C#Cc4ccccc4)cn23)c1,20%
25,CCC(CO)Nc1ccc2ncc(-c3ccccc3Cl)n2n1 (stereo not drawn),10%
26,Clc1ccc(-c2cnc3cnc(-c4cccs4)cn23)cc1,20%

row,Compound,Activity
1,Oc1cccc(-c2cnc3cnc(/C=C/c4ccccc4)cn23)c1,20%
2,CN(C)C(=O)c1ccc(-c2ccc3nnc(-c4cccc(C(F)(F)F)c4)n3c2)cc1,20%
3,CC(=O)Nc1ccc(-c2cnc3ccc(-c4ccc(S(C)(=O)=O)cc4)nn23)cc1,10%
4,c1ccc(Cn2cc(-c3cn4c(-c5ccc6c(c5)OCO6)cnc4cn3)cn2)cc1,50%
5,Cn1cc(-c2ccc3nnc(-c4ccc5c(c4)OCO5)n3c2)cn1,50%
6,CCOc1cccc(-c2cn3c(-c4cccc(CO)c4)cnc3cn2)c1,20%
7,Oc1cccc(-c2cnc3cnc(-c4cccc(Cl)c4)cn23)c1,20%
8,c1cc(-c2nnc3ccc(-c4ccc(N5CCOCC5)cc4)cn23)ccn1,20%
9,Oc1cccc(-c2ccc3nnc(-c4ccccn4)n3c2)c1,50%
10,O=C(Nc1cnc2cnc(-c3ccc4ccccc4c3)cn12)C1CCOC1 (stereo not drawn),10%
11,CC(C)(C)c1ccc(-c2cnc3cnc(-c4ccc(N)nc4)cn23)cc1,10%
12,O=C(O)CCc1ccc(-c2cnc3cnc(-c4ccccc4Cl)cn23)cc1,50%
13,CN(C)c1ccc(-c2cnc3cnc(-c4cccc(C(N)=O)c4)cn23)cc1,20%
14,CCOc1cccc(-c2cnc3cccnn23)c1,10%
15,CN(C)CCCNC(=O)c1ccc(-c2cn3c(-c4ccc(N(C)C)cc4)cnc3cn2)cc1,50%
16,CN(C)c1ccc(-c2cnc3cnc(-c4ccccc4Cl)cn23)cc1,20%
17,c1cc(-c2ccc3nnc(-c4ccc5c(c4)OCO5)n3c2)co1,50%
18,CN(C)c1ccc(-c2cnc3cnc(-c4ccc(O)cc4)cn23)cc1,50%
19,Fc1cccc(-c2cnc3cnc(-c4ccccc4)cn23)c1,20%
20,CC(=O)Nc1cccc(-c2cn3c(-c4ccc(C(=O)N(C)C)cc4)cnc3cn2)c1,20%
21,Cc1cc(-c2cnc3cccnn23)cc(C)c1O,10%
22,Cc1cc(-c2cn3c(-c4ccc5ncccc5c4)cnc3cn2)cc(C)c1O,20%
23,Clc1cccc(-c2nnc3ccc(-c4ccc5c(c4)OCO5)cn23)c1,50%
24,Cc1cccc(-c2cnc3cccnn23)c1,10%
25,c1ccc(-c2cn3c(-c4ccc5c(c4)OCO5)cnc3cn2)cc1,50%
26,COc1cc(-c2cnc3cnc(-c4ccc(N5CCN(C)CC5)nc4)cn23)cc(OC)c1OC,20%

row,Compound,Activity
1,CS(=O)(=O)Nc1cccc(-c2cn3c(-c4ccc(Oc5ccccc5)cc4)cnc3cn2)c1,20%
2,COc1cc(OC)cc(-c2cn3c(-c4cccc(N(C)C)c4)cnc3cn2)c1,20%
3,COc1ccc(CNc2ccc3ncc(-c4ccc(OC)cc4OC)n3n2)cc1,10%
4,Cc1ccccc1-c1nnc2ccc(-c3cccc(C(=O)NCCO)c3)cn12,10%
5,COc1ccc(-c2ccc3ncc(-c4cccc(Cl)c4)n3n2)c(C)c1,10%
6,Clc1cccc(-c2nnc3ccc(-c4cccnc4)cn23)c1,50%
7,OCc1ccc(-c2ccc3nnc(-c4ccncc4)n3c2)cc1,20%
8,Clc1ccccc1-c1ccc2ncc(-c3cccs3)n2n1,10%
9,CC(=O)Nc1ccc(-c2ccc3nnc(-c4cccc(Cl)c4)n3c2)cc1,20%
10,Cc1ccccc1-c1nnc2ccc(-c3ccc(C(N)=O)cc3)cn12,20%
11,COc1cc(-c2cn3c(-c4ccc5ncccc5c4)cnc3cn2)ccc1O,20%
12,Cn1ccc2cc(-c3cn4c(-c5ccc6ncccc6c5)cnc4cn3)ccc21,>=100%
13,COc1cccc(CC(=O)Nc2cnc3cnc(-c4ccccc4CN(C)C)cn23)c1,20%
14,CC(=O)Nc1cccc(-c2cnc3ccc(-c4cccnc4)nn23)c1,10%
15,OCc1ccc(-c2cn3c(-c4cccc(Cl)c4)cnc3cn2)cc1,20%
16,COc1cncc(-c2ccc3nnc(-c4cccc(OC(F)(F)F)c4)n3c2)c1,50%
17,COc1ccc(-c2ccc3nnc(-c4cscn4)n3c2)c(C)c1,50%
18,COc1ccccc1-c1ccc2ncc(-c3cccc(OC(F)(F)F)c3)n2n1,10%
19,CC(=O)c1ccc(-c2cnc3cccnn23)cc1,10%
20,COc1cccc(C#Cc2ccc3nnc(-c4cccc(OC(F)(F)F)c4)n3c2)c1,20%
21,COc1cc(-c2ccc3nnc(-c4ccoc4)n3c2)cc(OC)c1OC,50%
22,CN1CCN(C(=O)c2cccc(-c3cnc4cnc(-c5ccc6c(c5)OCO6)cn34)c2)CC1,20%
23,COc1ccccc1CC(=O)Nc1cnc2cnc(-c3cccc(Cl)c3Cl)cn12,20%
24,O=C(O)CCc1ccc(-c2cnc3cnc(-c4cccs4)cn23)cc1,20%
25,Cn1cc(-c2cn3c(-c4ccc(O)cc4)cnc3cn2)cn1,20%
26,c1ccc(Oc2cccc(-c3ccc4nnc(-c5ccncc5)n4c3)c2)cc1,20%
